{"source": "ChEMBL document CHEMBL3992489", "about": "“Potentiation of the Fosmidomycin analogue FR 900098 with substituted 2-oxazolines against Francisella novicida” (2016)", "key": {"[1]": {"experiment": "Potentiation of FR900098-induced antibacterial activity against Francisella novicida U112 assessed as FR900098 MIC after 48 hrs", "assay_type": "functional, Francisella tularensis subsp. novicida U112", "details": "Francisella tularensis"}, "[2]": {"experiment": "Potentiation of FR900098-induced antibacterial activity against Francisella novicida U112 assessed as fold reduction in FR900098 MIC after 48 hrs", "assay_type": "functional, Francisella tularensis subsp. novicida U112"}, "[3]": {"experiment": "Antibacterial activity against Francisella novicida U112 after 48 hrs", "assay_type": "functional, Francisella tularensis subsp. novicida U112", "details": "Francisella tularensis"}, "[4]": {"experiment": "Potentiation of FR900098-induced antibacterial activity against Francisella philomiragia ATCC 25015 assessed as fold reduction in FR900098 MIC after 48 hrs", "assay_type": "functional, Francisella philomiragia subsp. philomiragia ATCC 25015"}, "[5]": {"experiment": "Antibacterial activity against Francisella philomiragia ATCC 25015 after 48 hrs", "assay_type": "functional, Francisella philomiragia subsp. philomiragia ATCC 25015", "details": "ATCC 25015, 48 h"}, "[6]": {"test_system": "Francisella tularensis subsp. novicida U112", "experiment": "Potentiation of FR900098-induced antibacterial activity against Francisella novicida U112 assessed as reduction in FR900098 MIC at <30 uM after 48 hrs", "assay_type": "functional"}, "[7]": {"experiment": "Potentiation of FR900098-induced antibacterial activity against Francisella novicida U112 assessed as fold reduction in FR900098 MIC at 40 uM after 48 hrs", "assay_type": "functional, Francisella tularensis subsp. novicida U112"}, "[8]": {"experiment": "Potentiation of FR900098-induced antibacterial activity against Francisella novicida U112 assessed as FR900098 MIC at 40 uM after 48 hrs", "assay_type": "functional, Francisella tularensis subsp. novicida U112", "details": "Francisella tularensis"}, "[9]": {"test_system": "Francisella tularensis subsp. novicida U112", "experiment": "Bactericidal activity against Francisella novicida U112 at 25% antibacterial MIC up to 24 hrs by time kill curve assay", "assay_type": "functional"}}, "note": "Activity calls are given as the source filed them. No cut-off for these calls is given here."}
{"smiles": "CCCCCCc1ccc(C2=NCCCO2)cc1", "values": [{"measurement": "MIC", "setting": "[1]", "result": 4, "unit": "µg/mL"}, {"measurement": "fold change (FC)", "setting": "[2]", "result": 4}, {"measurement": "MIC", "setting": "[3]", "result": 50, "unit": "µM"}]}
{"smiles": "CCCCc1ccc(C2=NCCO2)cc1", "values": [{"measurement": "MIC", "setting": "[1]", "result": 4, "unit": "µg/mL"}, {"measurement": "fold change (FC)", "setting": "[2]", "result": 4}, {"measurement": "MIC", "setting": "[3]", "result": "> 200", "unit": "µM"}]}
{"smiles": "Brc1cccc(C2=NCCO2)c1", "values": [{"measurement": "MIC", "setting": "[1]", "result": 16, "unit": "µg/mL"}, {"measurement": "MIC", "setting": "[3]", "result": "> 200", "unit": "µM"}]}
{"smiles": "CCCCCCc1ccc(-c2c[nH]c(N)n2)cc1", "values": [{"measurement": "MIC", "setting": "[1]", "result": 32, "unit": "µg/mL"}, {"measurement": "MIC", "setting": "[3]", "result": 12.5, "unit": "µM"}]}
{"smiles": "CCCCCCc1ccc(-c2ncco2)cc1", "values": [{"measurement": "MIC", "setting": "[1]", "result": 16, "unit": "µg/mL"}, {"measurement": "MIC", "setting": "[3]", "result": "> 200", "unit": "µM"}]}
{"smiles": "CCCCCCc1ccc(C2SCCS2)cc1", "values": [{"measurement": "MIC", "setting": "[1]", "result": 16, "unit": "µg/mL"}, {"measurement": "MIC", "setting": "[3]", "result": "> 200", "unit": "µM"}]}
{"smiles": "CCCCCc1ccc(C2=NCCS2)cc1", "values": [{"measurement": "MIC", "setting": "[1]", "result": 1, "unit": "µg/mL"}, {"measurement": "fold change (FC)", "setting": "[2]", "result": 16}, {"measurement": "MIC", "setting": "[3]", "result": 200, "unit": "µM"}]}
{"smiles": "CCCCCc1ccc(C2=NCCO2)cc1", "values": [{"measurement": "MIC", "setting": "[1]", "result": 4, "unit": "µg/mL"}, {"measurement": "fold change (FC)", "setting": "[4]", "result": 4}, {"measurement": "MIC", "setting": "[5]", "result": 200, "unit": "µM"}, {"measurement": "MIC", "setting": "[3]", "result": 200, "unit": "µM"}]}
{"smiles": "CCCCCCc1ccc(C2=NCCN2)cc1", "values": [{"measurement": "MIC", "setting": "[1]", "result": 16, "unit": "µg/mL"}, {"measurement": "MIC", "setting": "[3]", "result": 100, "unit": "µM"}]}
{"smiles": "CCCCCCc1ccc(-c2ncc[nH]2)cc1", "values": [{"measurement": "MIC", "setting": "[1]", "result": 32, "unit": "µg/mL"}, {"measurement": "MIC", "setting": "[3]", "result": 12.5, "unit": "µM"}]}
{"smiles": "c1ccc(C2=NCCO2)cc1", "values": [{"measurement": "MIC", "setting": "[1]", "result": 16, "unit": "µg/mL"}, {"measurement": "MIC", "setting": "[3]", "result": "> 200", "unit": "µM"}]}
{"smiles": "CCCCCCc1ccc(C2=NCCO2)cc1", "values": [{"measurement": "Activity", "setting": "[6]", "result": "inactive"}, {"measurement": "fold change (FC)", "setting": "[4]", "result": 32}, {"measurement": "fold change (FC)", "setting": "[7]", "result": 1000}, {"measurement": "MIC", "setting": "[8]", "result": 0.0156, "unit": "µg/mL"}, {"measurement": "Activity", "setting": "[9]", "result": "inactive"}, {"measurement": "MIC", "setting": "[3]", "result": "> 200", "unit": "µM"}]}
{"smiles": "CCCCCCCCc1ccc(C2=NCCO2)cc1", "values": [{"measurement": "MIC", "setting": "[1]", "result": 2, "unit": "µg/mL"}, {"measurement": "fold change (FC)", "setting": "[2]", "result": 8}, {"measurement": "MIC", "setting": "[3]", "result": 200, "unit": "µM"}]}
{"smiles": "CCCCCc1ccc(-c2ncco2)cc1", "values": [{"measurement": "MIC", "setting": "[1]", "result": 16, "unit": "µg/mL"}, {"measurement": "MIC", "setting": "[3]", "result": 200, "unit": "µM"}]}
{"smiles": "c1ccc(/N=N/c2ccc(C3=NCCO3)cc2)cc1", "values": [{"measurement": "MIC", "setting": "[1]", "result": 16, "unit": "µg/mL"}, {"measurement": "MIC", "setting": "[3]", "result": "> 200", "unit": "µM"}]}
{"smiles": "CCCCCCc1ccc(C2OCCO2)cc1", "values": [{"measurement": "MIC", "setting": "[1]", "result": 16, "unit": "µg/mL"}, {"measurement": "MIC", "setting": "[3]", "result": "> 200", "unit": "µM"}]}
{"smiles": "CCCCCCc1ccc(C(=O)OC)cc1", "values": [{"measurement": "MIC", "setting": "[1]", "result": 8, "unit": "µg/mL"}, {"measurement": "MIC", "setting": "[3]", "result": 200, "unit": "µM"}]}
{"smiles": "CCCCCCc1ccc(-c2cncnc2)cc1", "values": [{"measurement": "MIC", "setting": "[1]", "result": 4, "unit": "µg/mL"}, {"measurement": "fold change (FC)", "setting": "[2]", "result": 32}, {"measurement": "MIC", "setting": "[3]", "result": 100, "unit": "µM"}]}
{"smiles": "Fc1cc(C2=NCCO2)cc(F)c1F", "values": [{"measurement": "MIC", "setting": "[1]", "result": 16, "unit": "µg/mL"}, {"measurement": "MIC", "setting": "[3]", "result": "> 200", "unit": "µM"}]}
{"smiles": "Cc1ccc(C2=NCCO2)cc1", "values": [{"measurement": "MIC", "setting": "[1]", "result": 16, "unit": "µg/mL"}, {"measurement": "MIC", "setting": "[3]", "result": "> 200", "unit": "µM"}]}
{"smiles": "CCCCCCCCCCc1ccc(C2=NCCO2)cc1", "values": [{"measurement": "MIC", "setting": "[1]", "result": 16, "unit": "µg/mL"}, {"measurement": "fold change (FC)", "setting": "[2]", "result": 8}, {"measurement": "MIC", "setting": "[3]", "result": "> 200", "unit": "µM"}]}
{"smiles": "CN(C)c1ccc(C2=NCCO2)cc1", "values": [{"measurement": "MIC", "setting": "[1]", "result": 16, "unit": "µg/mL"}, {"measurement": "MIC", "setting": "[3]", "result": "> 200", "unit": "µM"}]}
{"smiles": "c1cc(C2=NCCO2)ccn1", "values": [{"measurement": "MIC", "setting": "[1]", "result": 16, "unit": "µg/mL"}, {"measurement": "MIC", "setting": "[3]", "result": "> 200", "unit": "µM"}]}
{"smiles": "CCCc1ccc(C2=NCCO2)cc1", "values": [{"measurement": "MIC", "setting": "[1]", "result": 16, "unit": "µg/mL"}, {"measurement": "MIC", "setting": "[3]", "result": "> 200", "unit": "µM"}]}
{"smiles": "Fc1cc(C2=NCCO2)ccc1C(F)(F)F", "values": [{"measurement": "MIC", "setting": "[1]", "result": 16, "unit": "µg/mL"}, {"measurement": "MIC", "setting": "[3]", "result": "> 200", "unit": "µM"}]}
{"smiles": "CC(=O)N(O)CCCP(=O)(O)O", "note": "[FR-900098]", "values": [{"measurement": "MIC", "setting": "[5]", "result": 1020, "unit": "µg/mL"}, {"measurement": "MIC", "setting": "[3]", "result": 16, "unit": "µg/mL"}]}
{"smiles": "CCCCCCCc1ccc(C2=NCCO2)cc1", "values": [{"measurement": "MIC", "setting": "[1]", "result": 2, "unit": "µg/mL"}, {"measurement": "fold change (FC)", "setting": "[2]", "result": 8}, {"measurement": "MIC", "setting": "[3]", "result": 100, "unit": "µM"}]}
{"smiles": "CCCCCCCCCc1ccc(C2=NCCO2)cc1", "values": [{"measurement": "MIC", "setting": "[1]", "result": 16, "unit": "µg/mL"}, {"measurement": "fold change (FC)", "setting": "[2]", "result": 8}, {"measurement": "MIC", "setting": "[3]", "result": "> 200", "unit": "µM"}]}
{"smiles": "c1ccc2cc(C3=NCCO3)ccc2c1", "values": [{"measurement": "MIC", "setting": "[1]", "result": 16, "unit": "µg/mL"}, {"measurement": "MIC", "setting": "[3]", "result": 100, "unit": "µM"}]}
{"smiles": "C(=C\\c1ccccc1)/C1=NCCO1", "values": [{"measurement": "MIC", "setting": "[1]", "result": 32, "unit": "µg/mL"}, {"measurement": "MIC", "setting": "[3]", "result": "> 200", "unit": "µM"}]}
{"smiles": "CCCCCCc1ccc(-c2ccncc2)cc1", "values": [{"measurement": "MIC", "setting": "[1]", "result": 0.5, "unit": "µg/mL"}, {"measurement": "MIC", "setting": "[3]", "result": 100, "unit": "µM"}]}
{"smiles": "CCCCCCc1ccc(C2=NCCS2)cc1", "values": [{"measurement": "MIC", "setting": "[1]", "result": 2, "unit": "µg/mL"}, {"measurement": "fold change (FC)", "setting": "[2]", "result": 8}, {"measurement": "MIC", "setting": "[3]", "result": "> 200", "unit": "µM"}]}
{"smiles": "CCc1ccc(C2=NCCO2)cc1", "values": [{"measurement": "MIC", "setting": "[1]", "result": 16, "unit": "µg/mL"}, {"measurement": "MIC", "setting": "[3]", "result": "> 200", "unit": "µM"}]}
